Measurements published in article PMC3561686 (Basic & Clinical Pharmacology & Toxicology, 2012).
Where two headings read alike, the source gives them in different places.

Tests used:
[1] = for Cmax: human, in vivo, prasugrel alone session, dried blood spots, mean (S.D.); for AUC ratio (prasugrel + ritonavir versus prasugrel alone): AUC0–6 hr; for AUC ratio (prasugrel + ritonavir versus prasugrel alone) / Cmax ratio (prasugrel + ritonavir versus prasugrel alone): mean ratio
CYP2C9 = CYP2C9 (Homo sapiens, UniProt P11712); conditions: mean ratio
CYP2C19 = CYP2C19 (Homo sapiens, UniProt P33261); assay: CYP2C19 phenotyping: omeprazole metabolic ratio in plasma; format: in vivo; conditions: mean ratio
CYP3A = conditions: cited from earlier work
[2] = read-out: expected Cmax; after a 100 mg dose; cited from earlier work
human liver microsomes = conditions: cited from earlier work

CYP2C19, sequence (P33261 whole entry): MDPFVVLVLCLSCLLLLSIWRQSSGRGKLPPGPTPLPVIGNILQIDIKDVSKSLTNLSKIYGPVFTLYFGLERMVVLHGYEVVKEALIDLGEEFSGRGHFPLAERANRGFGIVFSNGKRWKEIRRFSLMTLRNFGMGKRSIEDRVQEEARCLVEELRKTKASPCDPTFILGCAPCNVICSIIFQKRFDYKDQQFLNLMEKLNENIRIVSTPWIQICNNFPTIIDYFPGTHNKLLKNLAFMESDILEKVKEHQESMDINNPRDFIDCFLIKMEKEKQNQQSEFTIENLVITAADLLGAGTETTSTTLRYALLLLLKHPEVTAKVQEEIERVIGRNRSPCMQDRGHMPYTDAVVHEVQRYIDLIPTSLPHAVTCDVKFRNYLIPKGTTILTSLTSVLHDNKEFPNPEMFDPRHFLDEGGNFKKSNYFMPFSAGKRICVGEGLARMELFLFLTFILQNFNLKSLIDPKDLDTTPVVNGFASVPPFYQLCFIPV
CYP2C9, sequence (P11712 whole entry): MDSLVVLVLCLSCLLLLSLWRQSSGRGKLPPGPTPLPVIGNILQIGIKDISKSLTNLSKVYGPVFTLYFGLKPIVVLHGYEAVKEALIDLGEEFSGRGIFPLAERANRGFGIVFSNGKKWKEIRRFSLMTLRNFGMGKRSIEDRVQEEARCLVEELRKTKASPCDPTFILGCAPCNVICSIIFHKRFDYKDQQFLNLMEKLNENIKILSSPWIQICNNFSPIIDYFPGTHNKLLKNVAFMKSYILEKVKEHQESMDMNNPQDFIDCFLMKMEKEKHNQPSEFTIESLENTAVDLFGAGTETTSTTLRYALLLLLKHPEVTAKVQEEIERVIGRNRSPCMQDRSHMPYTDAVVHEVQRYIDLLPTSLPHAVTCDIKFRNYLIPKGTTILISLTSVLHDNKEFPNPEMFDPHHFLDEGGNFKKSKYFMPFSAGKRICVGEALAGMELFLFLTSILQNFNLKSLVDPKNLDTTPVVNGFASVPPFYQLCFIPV

## CC(NC(C)(C)C)C(=O)c1cccc(Cl)c1 (centres unmarked) [Bupropion, bupropion]
[1]
  Cmax: 20.9 ng/mL

## CC(C(=O)O)c1ccc(-c2ccccc2)c(F)c1 (centres unmarked) [Flurbiprofen, flurbiprofen]
CYP2C9
  Metabolic Ratio (OH flurbiprofen/flurbiprofen), ratio prasugrel + ritonavir versus prasugrel alone: not affected
[1]
  AUC ratio (prasugrel + ritonavir versus prasugrel alone): 0.95
  Cmax: 1140 ng/mL
  Cmax ratio (prasugrel + ritonavir versus prasugrel alone): 0.98

## Cc1ncc2n1-c1ccc(Cl)cc1C(c1ccccc1F)=NC2 [Midazolam, midazolam]
[1]
  AUC ratio (prasugrel + ritonavir versus prasugrel alone): 26.5
  Cmax: 0.17 ng/mL
  Cmax ratio (prasugrel + ritonavir versus prasugrel alone): 6.1
[1]; listed as midazolam
  AUC ratio (prasugrel + ritonavir versus prasugrel alone): 26
  Cmax ratio (prasugrel + ritonavir versus prasugrel alone): 6

## COc1ccc2[nH]c([S+]([O-])Cc3ncc(C)c(OC)c3C)nc2c1 (centres unmarked) [Omeprazole, omeprazole]
CYP2C19
  Metabolic Ratio (OH omeprazole/omeprazole), ratio prasugrel + ritonavir versus prasugrel alone: not affected
[1]
  AUC ratio (prasugrel + ritonavir versus prasugrel alone): 1.25
  Cmax: 35.6 ng/mL
  Cmax ratio (prasugrel + ritonavir versus prasugrel alone): 1.54

## CC(=O)N1CCN(c2ccc(OCC3COC(Cn4ccnc4)(c4ccc(Cl)cc4Cl)O3)cc2)CC1 (centres unmarked) [ketoconazole]
CYP3A
  Change in prasugrel AM formation or the inhibition of platelet aggregation when prasugrel was administered with the drug: no change

## CC(C)c1nc(CN(C)C(=O)N[C@H](C(=O)N[C@@H](Cc2ccccc2)C[C@H](O)[C@H](Cc2ccccc2)NC(=O)OCc2cncs2)C(C)C)cs1 [ritonavir]
[2]
  Cmax: 1000 to 2000 nM
Human liver microsomes
  Inhibition of prasugrel bioactivation: potent inhibitor
